Measured values published in paper PMC10176891 (Bioorganic & Medicinal Chemistry Letters, 2023).

How the values were obtained:
[1] = Liver microsome stability, mouse; assay type: in vitro ADME; details: liver microsomes
[2] = Liver microsome stability, rat; assay type: in vitro ADME; details: liver microsomes
[3] = Hepatocytes stability, mouse; assay type: in vitro ADME
[4] = Hepatocytes stability, rat; assay type: in vitro ADME
[5] = Hepatocytes stability, human; assay type: in vitro ADME
[6] = Mouse PK; assay type: in vivo; details: iv 3 mg/kg
[7] = Rat PK; assay type: in vivo; details: iv 2 mg/kg
[8] = Predicted human clearance by simple allometric scaling; details: simple allometric scaling method
[9] = test system: HCoV-OC43; assay type: in vivo; details: intraperitoneal injection, 7 days, 6 neonatal mice per group
[10] = molecular target: SARS-CoV-2 M^pro (Severe acute respiratory syndrome coronavirus 2, UniProt P0DTD1); test: SARS-CoV-2 Mpro enzymatic assay; assay type: biochemical
[11] = Liver microsome stability, human; assay type: in vitro ADME; details: liver microsomes
[12] = vehicle 40% PEG400 + 60 %saline

Row | SMILES | CLint scaled [1] [mL/min/kg] | CLint scaled [2] [mL/min/kg] | CLint scaled [3] [mL/min/kg] | CLint scaled [4] [mL/min/kg] | CLint scaled [5] [mL/min/kg] | CL [6, 12] | CL [7, 12] | Predicted human clearance [8] | Mice survived at day 14 ([9]; high dosing group) | Mice survived ([9]; low dosing group) | Folds loss in enzymatic and cell potencies ([10]; P3 cap modifications, enzymatic and cell potencies) | CLint scaled [11] [mL/min/kg] | CL ([6]; vehicle saline) | CL ([7]; vehicle saline) | Fold weaker in enzymatic potency relative to 2a ([10]; relative to 2a) [fold]
1 | CC(C)(C)NC(=O)C(=O)[C@H](C[C@@H]1CCNC1=O)NC(=O)[C@@H]1[C@H]2CCC[C@H]2CN1C(=O)[C@@H](NC(=O)C(F)(F)F)C1CCCCC1 [4a] | 212 | 25 | 1020 | 42 | < 17.8 | 2.50 mL min^−1 kg^−[1] | 2.55 mL min^−1 kg^−[1] | about 2.9 ml/min/kg | 6/6 | four out of six | – | – | – | – | –
2 | CC(=O)N[C@H](C(=O)N1C[C@@H]2CCC[C@@H]2[C@H]1C(=O)N[C@H](C#N)C[C@@H]1CCNC1=O)C1CCCCC1 [3c] | – | – | – | – | – | – | – | – | – | – | 3–10 folds | – | – | – | –
3 | CC(C)(C)[C@H](NC(=O)C(F)(F)F)C(=O)N1C[C@@H]2CCC[C@@H]2[C@H]1C(=O)N[C@H](C#N)C[C@@H]1CCNC1=O [2a] | 262 | < 17.3 | 435 | 32 | < 17.8 | – | – | – | – | – | – | 13 | 79.3 mL min^−1 kg^−[1] | 75.4 mL min^−1 kg^−[1] | –
4 | N#C[C@H](C[C@@H]1CCNC1=O)NC(=O)[C@@H]1[C@H]2CCC[C@H]2CN1C(=O)[C@@H](NC(=O)C(F)(F)F)C1CCCCC1 [3a] | 215 | < 17.3 | 455 | 51 | < 17.8 | – | – | – | – | – | – | 19 | 92.2 mL min^−1 kg^−[1] | 62.7 mL min^−1 kg^−[1] | –
5 | CC(C)(C)NC(=O)C(=O)[C@H](C[C@@H]1CCNC1=O)NC(=O)[C@@H]1[C@H]2CCC[C@H]2CN1C(=O)[C@@H](NC(=O)C(F)(F)F)C1CCCC1 [4c] | – | – | – | – | – | 5.06 mL min^−1 kg^−[1] | – | – | – | – | – | – | – | – | –
6 | N#C[C@H](C[C@@H]1CCNC1=O)NC(=O)[C@@H]1[C@H]2CCC[C@H]2CN1C(=O)[C@@H](NC(=O)C(F)(F)F)c1ccc(F)cc1 [3b] | – | – | – | – | – | – | – | – | – | – | – | – | – | – | 4
7 | CC(C)(C)[C@H](NC(=O)C(F)(F)F)C(=O)N1C[C@H]2[C@@H]([C@H]1C(=O)N[C@H](C#N)C[C@@H]1CCNC1=O)C2(C)C [nirmatrelvir, reference compound] | 329 | < 17.3 | 169 | < 29.9 | < 17.8 | – | – | – | – | – | – | 29 | 30.2 mL min^−1 kg^−[1] | 42.0 mL min^−1 kg^−[1] | –
